Data from ChEMBL document CHEMBL1156324, “Purine derivatives as potent gamma-secretase modulators” (Bioorg Med Chem Lett, 2010).

Assays:
[1] = Activity at gamma-secretase expressed in human SH-SY5Y cells assessed as inhibition of amyloid beta 40 production by HTRF immunoassay; format: cell-based
[2] = Activity at gamma-secretase expressed in human SH-SY5Y cells assessed as inhibition of amyloid beta 42 production by HTRF immunoassay; format: cell-based
[3] = target: Gamma-secretase; assay: Inhibition of gamma-secretase-mediated Notch deltaE cleavage in human HeLa cells by luciferase assay; format: cell-based
[4] = target: Gamma-secretase (Homo sapiens) (UniProt Q96BI3+Q9NZ42+Q8WW43+P49768+Q92542+P49810); assay: Selectivity ratio, IC50 for human gamma-secretase-mediated Notch deltaE cleavage to IC50 for gamma-secretase-mediated amyloid beta 42 production; format: protein-complex assay
[5] = Drug level in APP-YAC transgenic mouse brain at 100 mg/kg, po after 6 hrs; format: ADME, organism-based; set-up: dose 100 mg/kg, route oral; details: read-out: Drug uptake
[6] = Drug level in APP-YAC transgenic mouse plasma at 100 mg/kg, po after 6 hrs; format: ADME, organism-based; set-up: dose 100 mg/kg, route oral; details: read-out: Drug uptake
[7] = system: Mus musculus; assay: Inhibition of Abeta42 production in APP-YAC transgenic mouse brain at 100 mg/kg, po after 6 hrs; format: functional; details: read-out: INH

Row | SMILES | IC50 [1] [µM] | IC50 [2] [µM] | IC50 [3] [µM] | Ratio IC50 [4] | concentration at 6 h [5] [µM] | concentration at 6 h [6] [µM] | inhibition in vivo at 100 mg/kg [7] [%]
1 | COc1ccc(N2CCN(c3nc(Nc4cc(C(C)(C)C)ccc4C)c4c(ncn4C)n3)CC2(C)C)cc1F | 0.27 | 0.021 |  |  |  |  | 
2 | Cc1ccc(C(C)(C)C)cc1Nc1nc(N2CCN(Cc3ccncc3)CC2)nc2ncn(C)c12 | 0.13 | 0.012 | 9.1 | 760 |  |  | 
3 | Cc1ccc(C(C)(C)C)cc1Nc1nc(N2CCC(Oc3ccncc3)CC2)nc2ncn(C)c12 | 0.057 | 0.0094 |  |  |  |  | 
4 | Cc1ccc(C(C)(C)C)cc1Nc1nc(N2CCC(c3ccncc3)CC2)nc2ncn(C)c12 | 1.8 | 0.35 |  |  |  |  | 
5 | CCc1ccc(N2CCN(c3nc(Nc4cc(C(C)(C)C)ccc4C)c4c(ncn4C)n3)CC2)cc1 | 3.9 | 0.81 |  |  |  |  | 
6 | COCCCCN1CCN(c2nc(Nc3cc(C(C)(C)C)ccc3C)c3c(ncn3C)n2)CC1 | 4.7 | 0.87 |  |  |  |  | 
7 | COc1ccc(N2CCN(c3nc(Nc4cc(C(C)(C)C)ccc4C)cc(OC)n3)CC2(C)C)cc1 | 5.7 | 0.26 |  |  |  |  | 
8 | COc1ccc(N2CCN(c3nc(Nc4cc(C(C)(C)C)ccc4C)c4ncn(C)c4n3)CC2(C)C)cc1 | 2.6 | 0.13 |  |  |  |  | 
9 | Cc1cc(OC2CCN(c3nc(Nc4cc(C(C)(C)C)ccc4C)c4c(ncn4C)n3)CC2)ncn1 | 0.12 | 0.016 | 13 | 810 | 7.8 | 27 | 69
10 | COc1ccc(N2CCN(c3nc(Nc4cc(C(C)(C)C)ccc4C)c4[nH]cnc4n3)CC2(C)C)cc1 | 1 | 0.068 |  |  |  |  | 
11 | COc1ccc(N2CCN(c3nc(Nc4cc(C(C)(C)C)ccc4C)c4[nH]ccc4n3)CC2(C)C)cc1 | 3 | 0.75 |  |  |  |  | 
12 | Cc1ccc(C(C)(C)C)cc1Nc1nc(N2CCN(CC3CCOCC3)CC2)nc2ncn(C)c12 | 8 | 0.91 |  |  |  |  | 
13 | COc1ccc(N2CCN(c3nc(Nc4cc(C(C)(C)C)ccc4C)c4c(n3)nc(C)n4C)CC2(C)C)cc1 | 0.16 | 0.022 | 9.2 | 420 |  |  | 
14 | COc1ccc(N2CCN(c3nc(Nc4cc(C(C)(C)C)ccc4C)c4c(ncn4C(C)C)n3)CC2(C)C)cc1 | 0.35 | 0.05 |  |  |  |  | 
15 | COc1ccc(N2CCN(c3nc(Nc4cc(C(C)(C)C)ccc4C)c4c(ncn4CC(F)(F)F)n3)CC2(C)C)cc1 | 0.42 | 0.055 |  |  |  |  | 
16 | Cc1ccc(C(C)(C)C)cc1Nc1nc(N2CCC(Cc3ccncc3)CC2)nc2ncn(C)c12 | 0.31 | 0.03 |  |  |  |  | 
17 | Cc1ccc(C(C)(C)C)cc1Nc1nc(N2CCC(n3ccnc3)CC2)nc2ncn(C)c12 | 1.6 | 0.34 |  |  |  |  | 
18 | COc1ccc(N2CCCN(c3nc(Nc4cc(C(C)(C)C)ccc4C)c4c(ncn4C)n3)CC2)cc1 | 4.1 | 0.38 |  |  |  |  | 

More lines, in order of falling IC50 [1], values ahead:

Row | IC50 [1] [µM] | IC50 [2] [µM] | IC50 [3] [µM] | Ratio IC50 [4] | concentration at 6 h [5] [µM] | concentration at 6 h [6] [µM] | SMILES | inhibition in vivo at 100 mg/kg [7] [%]
19 | 3.1 | 0.21 |  |  |  |  | COc1ccc(N2CCN(c3nc(Nc4cc(C(C)(C)C)ccc4C)c4cccnc4n3)CC2(C)C)cc1 | 
20 | 1.1 | 0.8 |  |  |  |  | Cc1ccc(C(C)(C)C)cc1Nc1nc(-c2ccc(Cc3ccncc3)cc2)nc2ncn(C)c12 | 
21 | 1.1 | 0.5 |  |  |  |  | COc1ccc(NCCNc2nc(Nc3cc(C(C)(C)C)ccc3C)c3c(ncn3C)n2)cc1 | 
22 | 1 | 0.05 | > 50 | > 1000 |  |  | COc1ccc(N2CCN(c3nc(Nc4cc(C(C)(C)C)ccc4C)c4c(n3)nc(C(F)(F)F)n4C)CC2(C)C)cc1 | 
23 | 0.73 | 0.039 | > 50 | > 1300 |  |  | COc1ccc(N2CCN(c3nc(Nc4cc(C(C)(C)C)ccc4C)c4c(ncn4C)n3)CC2)cc1 | 
24 | 0.63 | 0.054 |  |  |  |  | Cc1ccc(C(C)(C)C)cc1Nc1nc(N2CCC(c3ccccc3)C2)nc2ncn(C)c12 (centres undefined) | 
25 | 0.4 | 0.067 | 22 | 330 |  |  | Cc1ccc(C(C)(C)C)cc1Nc1nc(NCCc2cnn(C)c2)nc2ncn(C)c12 | 
26 | 0.35 | 0.021 | > 50 | > 2400 | 7.8 | 23 | COc1ccc(N2CCN(c3nc(Nc4cc(C(C)(C)C)ccc4C)c4c(ncn4C)n3)CC2(C)C)cc1 | 73
27 | 0.25 | 0.036 |  |  |  |  | Cc1ccc(C(C)(C)C)cc1Nc1nc(NCCc2ccncc2)nc2ncn(C)c12 | 
